In publication PMC6540241, “Targeting Tumor Markers with Antisense Peptides: An Example of Human Prostate Specific Antigen” (International Journal of Molecular Sciences, 2019):
Where a SMILES comes first, the peptide text is derived from it. Where no end group is shown, it is not given here. The star is where a group is joined. Biotin = O=C1N[C@H]2[C@H](CS[C@H]2CCCCC(=O)*)N1

B1: Human prostate specific antigen (hPSA) peptide 53–59: RHSLFHP (peptide)
peptide: RHSLFHP
notes: human prostate specific antigen (hPSA), residues 53-59 (R53-P59); 77-83 of the precursor P07288; In the magnetic particle enzyme immunoassay the peptide was coupled by EDC to SPHERO carboxyl magnetic particles; also called sense peptide; source: synthetic peptide, bought: GenScript (>97% purity)
B2: N-terminal biotin antisense peptide Biotin-AVRDKVG (peptide)
peptide: Biotin-AVRDKVG
modifications: not fully specified
notes: Some sentences print AKRDKVG; also called biotinylated antisense peptide AVRDKVG; antisense paratope Biotin-AVRDKVG; source: synthetic peptide, bought: GenScript (>97% purity)

Assays:
[1] = test system: human prostate specific antigen (hPSA) in prostate cancer tissue; assay: Immunohistochemical staining of hPSA, protocol 2 (biotinylated peptide instead of primary antibody); parameters: key to overall quality of scoring (NordiQC) / hPSA staining quality score (NordiQC): 3: Staining reaction considered perfect or close to perfect.; 2: Staining reaction considered fully acceptable. The protocol may be optimized to ensure the best staining intensity and signal-to-noise ratio.; 1: Staining considered insufficient.; 0: Staining considered very insufficient
Protocol: (§1) Immunohistochemistry was performed on deparafinized slides (xylen and a series of ethanol solutions) at room temperature (20–25 °C). The phosphate-buffered saline (PBS) was used, with a pH of 7.2 and containing disodium hydrogen phosphate, sodium chloride, potassium chloride and potassium dihydrogen phosphate was used. PBS stock solution: 4 g KH2PO4, 23 g Na2HPO4, 4 g KCl, 160 g NaCl and 810 mL distilled water. Before staining, 100 mL of stock solution was diluted with 1900 mL of distilled water.
All slides (from seven patients) were selected from the repository of prostate cancer tissue, with diagnosis confirmed by consensus of two independent pathologists. The two pathologists who examined the slides stained with antisense peptides were unconnected with the pathologists who established the initial diagnosis.
(§2) Each of the two immunohistochemistry protocols for PSA staining consisted of six steps. Steps 1, 4, 5 and 6 of protocol 1 and protocol 2 were identical, while steps 2 and 3 differed (Figure 5 and Figure 6). For this study, the slides were kept in the dark at room temperature (20–25 °C), to prevent fading as a result of exposure to strong light. They were analyzed using an Olympus BX41 microscope, with an Olympus DP71 camera set to three levels of magnification: less than 40×, 100×, and 500×.
(§3) The staining protocol 2 was a modified IHC protocol 1, as follows: In step 2 we used antisense peptide Biotin-AVRDKVG, instead of the primary monoclonal mouse anti-human PSA antibody, in step 3 we used rabbit polyclonal antibody to biotin conjugated to HRP, instead of HRP labeled polymer conjugated to goat anti-mouse immunoglobulins (Figure 5), with peptide Biotin-EHFRW as a negative control (Figure 7). Otherwise, the procedures and chemicals were identical. Quality control for the PSA staining was investigated using NordiQC scoring criteria: 0—Poor; 1—Borderline; 2—Good; 3—Optimal. The scale is presented in Table A2, and the final results given in Table 4 are expressed as a sum of scores.
IHC staining―protocol 2: • The specimen was covered with peroxidase block, i.e., 100 μL of 0.03% hydrogen peroxide containing sodium azide (Dako, Glostrup, Denmark), and incubated for four minutes. Following this, the specimen was gently rinsed with phosphate buffered saline (PBS), and placed in a fresh buffer bath. • Biotinylated antisense peptide AVRDKVG (GenScript, Piscataway, NJ, USA) directed to PSA epitope 53–59 (RHSLFHP) was used to cover the specimen. Five milligrams of Biotin-AVRDKVG antisense was diluted in 2.5 mL PBS. Dilutions 1:10, 1:50, 1:100, 1:200 and 1:500 were applied to cover the specimen. A 100 μL volume was used per section. After 30 min of incubation, each specimen was gently rinsed with PBS and placed in a fresh buffer bath. • Anti-biotin antibody conjugated to HRP (ab34645, Abcam, Cambridge, UK) was applied to cover the specimen. Of the antibody 10 mg/2 mL was diluted 1:100. One hundred microliters of the diluted antibody was applied to cover each specimen, followed by a 30 min incubation. After the incubation, the specimen was gently rinsed with PBS and placed in a fresh buffer bath. • The specimen was covered with 100 μL of AEC + substrate-chromogen solution for 10 min, i.e., 3-amino-9-ethylcarbazole containing hydrogen peroxide, stabilizers, enhancers and an anti-microbial agent (Dako, Glostrup, Denmark). After that period the specimen was again rinsed with PBS. • The slides were immersed in a bath of aqueous hematoxylin (Mayerr’s hematoxylin), and rinsed gently in a distilled water bath. The slides were dipped 10 times into a bath of ammonia (0.037 mol/L), and then rinsed in a bath of distilled water for four minutes. • The specimens were mounted and coverslipped with non-aqueous permanent mounting medium Ultramount.

[2] = biological target: T1, hPSA peptide RHSLFHP (residues 53–59) (Homo sapiens, UniProt P07288); assay: Microscale thermophoresis (MST); type: binding
T1 construct: Human prostate specific antigen (hPSA) peptide 53–59: RHSLFHP; purchased GenScript; host or cells: synthetic peptide
Protocol: The binding between the biotinylated antisense peptide AVRDKVG and a titrant, i.e., hPSA peptide RHSLFHP (Figure 3b), was observed by the method of microscale thermophoresis (MST). MST-analysis was performed using the Monolith.NT.115 instrument (NanoTemper Technologies GmbH, Munich, Germany). Biotin-AVRDKVG antisense directed to the hPSA region 53–59 was labeled with DY-495 (Red). The labeling procedure and the subsequent removal of unattached dye were performed within 45 min. A serial dilution of the non-labeled hPSA titrant was prepared in a 10 mM phosphate buffer. The concentration of biotin-hPSA antisense labelled with DY-495 was kept constant, while the concentration of the non-fluorescent binding partner (hPSA peptide RHSLFHP53–59) was varied between 0.0854 µM and 2.8 mM. After a short incubation, the samples were loaded into MST NT.115 standard glass capillaries and the MST-analysis was performed. The data were analyzed using GraphPad Prism software version 5.

[3] = biological target: T2, hPSA peptide RHSLFHP coated onto carboxyl magnetic particles (Homo sapiens, UniProt P07288); assay: Magnetic particle enzyme immunoassay (MPEIA); type: binding
T2 construct: Human prostate specific antigen (hPSA) peptide 53–59: RHSLFHP; purchased GenScript; host or cells: synthetic peptide
Protocol: Briefly, the reaction mixture was composed of 2 mL sodium acetate buffer (0.01M, pH 5.0), 2 mg of peptide and 2 mL of 2.5% w/v carboxyl magnetic particles―1.14 μm, 20 mg of EDC. Reactions proceeded in glass reaction tubes overnight at room temperature in a rotary mixer. Tubes were centrifuged at 3000× g for 15 min, supernatant was carefully discarded, and the pellets were washed twice in 4 mL isotonic buffered saline (IBS), followed by centrifugation. After washing, coated magnetic particles were resuspended in 4 mL of PBS containing 0.05% Tween 20.
Two folds serial dilutions (1.09–70 µM) of biotinylated antisense peptide AVRDKVG were made in 96-well microtiter plates to generate standard curves (Figure 4b). Mismatched peptide Biotin-EHFRW was used as a negative control (Figure 4b). A suspension (1.25% w/v) of carboxyl magnetic particles, coated with sense peptide RHSLFHP, was added to each well (40 µL/well). The plates were incubated at room temperature for 30 min and washed with PBS-Tween 20 five times. The washing solution was removed each time using the Spherotech UltraMag Separator (Sperotech, Inc., Lake Forest, IL, USA).
A blocking solution (PBS with 1% BSA) was added to the wells and incubated at room temperature for one hour. […] The absorbances were read at 450 nm on a multiwell plate reader. The data were analyzed using GraphPad Prism software version 5.

[4] = test system: liver tissue; assay: Immunohistochemical staining of negative control tissue (protocol 2); parameters: species or system human
Protocol: as §1
as §2, with “For this study, the slides were kept in the dark at room temperature (20–25 °C), to prevent fading as a result of exposure to strong light.” left out
as §3, with “Otherwise, the procedures and chemicals were identical. Quality control for the PSA staining was investigated using NordiQC scoring criteria: 0—Poor; 1—Borderline; 2—Good; 3—Optimal.” left out, “scores. […]” for “scores.”

[5] = biological target: B2; assay: MST; Biotin-AVRDKVG labelled with DY-495 kept constant; unlabelled RHSLFHP titrated 0.0854 µM to 2.8 mM in 10 mM phosphate buffer; Monolith NT.115, standard capillaries; settings: both partners purified
[6] = biological target: B1; assay: magnetic particle enzyme immunoassay (MPEIA); RHSLFHP coupled by EDC to SPHERO carboxyl magnetic particles; biotinylated peptide in two-fold dilutions 1.09–70 µM, room temperature, 30 min, PBS-Tween 20 washes; detected with streptavidin-peroxidase polymer and OPD, absorbance at 450 nm; settings: both partners purified
[7] = mismatched peptide, negative control

For `CC(C)[C@H](NC(=O)[C@H](C)NC(=O)CCCC[C@@H]1SC[C@@H]2NC(=O)N[C@@H]21)C(=O)N[C@@H](CCCNC(=N)N)C(=O)N[C@@H](CC(=O)O)C(=O)N[C@@H](CCCCN)C(=O)N[C@H](C(=O)NCC(=O)O)C(C)C` [Biotin-AVRDKVG] (Biotin-AVRDKVG-OH), the “signal to noise ratio versus standard monoclonal antibody” value ([1]; compared with primary monoclonal mouse anti-human PSA antibody) was “comparable to the standard primary monoclonal mouse anti-human PSA antibody”, the “hPSA staining quality score (NordiQC)” value ([1]; dilution 1:10 (of 5 mg in 2.5 mL PBS), patient 1) was 0 and the “hPSA staining quality score (NordiQC)” value ([1]; dilution 1:10, patient 2) was 0. For the same molecule, the “hPSA staining quality score (NordiQC)” value ([1]; dilution 1:10, patient 3) was 0, the “hPSA staining quality score (NordiQC)” value ([1]; dilution 1:10, patient 4) was 0 and the “hPSA staining quality score (NordiQC)” value ([1]; dilution 1:10, patient 5) was 0. The “hPSA staining quality score (NordiQC)” value ([1]; dilution 1:10, patient 6) was 0, the “hPSA staining quality score (NordiQC)” value ([1]; dilution 1:10, patient 7) was 0 and the “Sum of scores (NordiQC)” value ([1]; dilution 1:10, seven patients) was 0. For the same molecule, the “hPSA staining quality score (NordiQC)” value ([1]; dilution 1:50, patient 1) was 1, the “hPSA staining quality score (NordiQC)” value ([1]; dilution 1:50, patient 2) was 1 and the “hPSA staining quality score (NordiQC)” value ([1]; dilution 1:50, patient 3) was 2. The “hPSA staining quality score (NordiQC)” value ([1]; dilution 1:50, patient 4) was 1, the “hPSA staining quality score (NordiQC)” value ([1]; dilution 1:50, patient 5) was 1 and the “hPSA staining quality score (NordiQC)” value ([1]; dilution 1:50, patient 6) was 1. For the same molecule, the “hPSA staining quality score (NordiQC)” value ([1]; dilution 1:50, patient 7) was 1, the “Sum of scores (NordiQC)” value ([1]; dilution 1:50, seven patients) was 8 and the “staining of prostate cancer tissue” value ([1]; dilution 1:100) was “solid staining signal with minimal or absent background noise”. The “hPSA staining quality score (NordiQC)” value ([1]; dilution 1:100, patient 1) was 2, the “hPSA staining quality score (NordiQC)” value ([1]; dilution 1:100, patient 2) was 2 and the “hPSA staining quality score (NordiQC)” value ([1]; dilution 1:100, patient 3) was 3. For the same molecule, the “hPSA staining quality score (NordiQC)” value ([1]; dilution 1:100, patient 4) was 2, the “hPSA staining quality score (NordiQC)” value ([1]; dilution 1:100, patient 5) was 3 and the “hPSA staining quality score (NordiQC)” value ([1]; dilution 1:100, patient 6) was 2. For the same molecule, the “hPSA staining quality score (NordiQC)” value ([1]; dilution 1:100, patient 7) was 2, the “Sum of scores (NordiQC)” value ([1]; dilution 1:100, seven patients) was 16 and the “hPSA staining quality score (NordiQC)” value ([1]; dilution 1:200, patient 1) was 0. The “hPSA staining quality score (NordiQC)” value ([1]; dilution 1:200, patient 2) was 1, the “hPSA staining quality score (NordiQC)” value ([1]; dilution 1:200, patient 3) was 1 and the “hPSA staining quality score (NordiQC)” value ([1]; dilution 1:200, patient 4) was 1. The “hPSA staining quality score (NordiQC)” value ([1]; dilution 1:200, patient 5) was 1, the “hPSA staining quality score (NordiQC)” value ([1]; dilution 1:200, patient 6) was 1 and the “hPSA staining quality score (NordiQC)” value ([1]; dilution 1:200, patient 7) was 1. For the same molecule, the “Sum of scores (NordiQC)” value ([1]; dilution 1:200, seven patients) was 6, the “hPSA staining quality score (NordiQC)” value ([1]; dilution 1:500, patient 1) was 0 and the “hPSA staining quality score (NordiQC)” value ([1]; dilution 1:500, patient 2) was 0. The “hPSA staining quality score (NordiQC)” value ([1]; dilution 1:500, patient 3) was 0, the “hPSA staining quality score (NordiQC)” value ([1]; dilution 1:500, patient 4) was 0 and the “hPSA staining quality score (NordiQC)” value ([1]; dilution 1:500, patient 5) was 0. For the same molecule, the “hPSA staining quality score (NordiQC)” value ([1]; dilution 1:500, patient 6) was 0, the “hPSA staining quality score (NordiQC)” value ([1]; dilution 1:500, patient 7) was 0 and the “Sum of scores (NordiQC)” value ([1]; dilution 1:500, seven patients) was 0. For the same molecule, the “staining of prostate cancer tissue” value ([1]; dilutions 1:10 and 1:50) was “increase in background noise”, the “staining of prostate cancer tissue” value ([1]; dilutions 1:200 and 1:500) was “loss of staining signal” and the “non-specific staining of prostate tissue” value ([1]; high concentration (1:10)) was “increase in background”. For the same molecule, the “overall quality of scoring (NordiQC)” value ([1]; overall) was 2, the Kd ([2]; Biotin-AVRDKVG labelled with DY-495, constant, RHSLFHP 0.0854 µM–2.8 mM, 10 mM phosphate buffer, r^2 = 0.989, mean ± SEM, read-out: dissociation constant (Kd)) was 24.3 ± 0.74 µM and the “effect of N-terminal biotinylation on binding” value ([2]; versus Kd of the non-biotinylated peptide by tryptophan fluorescence) was “does not significantly alter the binding to hPSA region 53–59 (RHSLFHP)”. The Kd ([3]; peptide 1.09–70 µM, 30 min, room temperature, streptavidin-peroxidase/OPD, 450 nm, r^2 = 0.996, mean ± SEM (SEM 0.20 µM), read-out: dissociation constant (Kd)) was 24.6 µM and the “staining of negative control tissue” value [4] was “did not stain”.

“Biotin-EHFRW [N-terminal biotin mismatched peptide, negative control, reference compound]” was tested, and the “staining of hPSA of the prostate tissue” value [1, 7] was “did not stain”.

For “Biotin-EHFRW: N-terminal biotin mismatched peptide, negative control [reference compound]”, the “binding to hPSA epitope RHSLFHP” value [3, 7] was “does not bind”.

In the case of B1, the Kd [5] is reported as 24.3 µM.

Molecule B2 has a Kd [6] of 24.6 µM.
